Measured values taken from BindingDB's records for doi:10.1021/jm0499108 (University of Michigan, 2004).
pKi: −log10 of the molar value.

Target: T1, E3 ubiquitin-protein ligase XIAP [241-356] (Homo sapiens, UniProt P98170)
T1 construct: 241-356
Test: Fluorescence Polarization Competitive Binding Assay
Settings: pH 7.5; 22 °C
Method: A quantitative in vitro binding assay using the fluorescence polarization (FP) based method was developed and used to determine the binding affinity of Smac mimetics to XIAP protein. The polarization values were measured after 3 hrs of incubation when the binding reached equilibrium. […] Curve fitting was performed using Prism ([sequence]). The binding affinity (Ki) of tested compound was calculated using the equation developed for computing the Ki value in FP-based binding assays.

T1 sequence (P98170 241-356): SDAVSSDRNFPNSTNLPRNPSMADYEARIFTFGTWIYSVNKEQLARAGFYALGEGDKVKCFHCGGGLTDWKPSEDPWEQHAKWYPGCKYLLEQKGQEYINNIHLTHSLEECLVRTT

## C[C@H](N)C(=O)N[C@H]1CC[C@H]2CC[C@@H](C(=O)Nc3ccccc3)N2C1=O [(3S,6S,8aS)-6-[(2S)-2-aminopropanamido]-5-oxo-N-phenyl-octahydroindolizine-3-carboxamide]
  pKi: < 4.00
